Laboratory results as given in patent US7799343B2, “Safer control of broadleaf weeds in turf with granular formulations of ALS inhibiting herbicides” (priority 2006, dated 2010).

Columns and labels:
Type in all cases: in vivo
[1] = system: tall fescue; assay: Turf tolerance field study, tall fescue, Indiana 2004; details: 14 Days After Treatment, g ai/Ha: penoxsulam 35, imazaquin 104, bispyribac-sodium 75, trifloxysulfuron-sodium 9.2, metsulfuron-methyl 10.4; for Color: 0 = brown to dead turf, 10 = lush green; for Injury: 0 = no visible injury, 10 = dead turf
Protocol: (§1) Turf tolerance studies were conducted in monoculture stands of perennial ryegrass and tall fescue. Replicated trials, containing a minimum of three replications and having individual plots ranging in size from 25 to 50 ft. sq (2.3 to 4.6 square meters), were initiated in the late spring when turf was actively growing. […] Natural rainfall and supplemental irrigation, fertilizer, fungicides and insecticides were used to maintain healthy turf throughout the study period. Turf tolerance evaluations were made weekly for 8 weeks after application. Evaluations compared treated and untreated plot areas and consisted of one or all of the following evaluations: 1) visual estimate of turf injury made on a 0 to 10 scale with 0 indicating no visible injury symptoms, 10 being dead turf and 3 or less being commercially acceptable; 2) visual estimate of turf color made on a 0 to 10 scale with 0 being brown to dead turf, 10 being a lush green turf of highest quality and 6.5 being commercially acceptable; 3) visual estimate of turf density made on a 0 to 100 scale with 0 being bare ground, 100 being a thick solid stand of highest quality and 90 percent density being commercially acceptable; 4) visual estimate of turf quality made on a 0 to 10 scale with 0 being brown to dead turf, 10 being a lush green turf of highest quality and 6.5 being commercially acceptable.

[2] = system: perennial ryegrass; assay: Turf tolerance field study, perennial ryegrass, Indiana 2004; details: 21 Days After Treatment, g ai/Ha: penoxsulam 35, imazaquin 104, bispyribac-sodium 75, trifloxysulfuron-sodium 9.2, metsulfuron-methyl 10.4; for Color: 0 = brown to dead turf, 10 = lush green; for Injury: 0 = no visible injury, 10 = dead turf
Protocol: as §1

[3] = system: perennial ryegrass; assay: Perennial ryegrass turf quality field study, Pennsylvania 2004; details: in vivo
Protocol: as §1

[4] = system: dandelion, Taraxacum officinale (TAROF); assay: Postemergent weed control field study, Pennsylvania 2004, TAROF; details: Granule formulation, g ai/Ha: penoxsulam 35, imazaquin 104, bispyribac-sodium 75, trifloxysulfuron-sodium 9.2, metsulfuron-methyl 10.4; for Percent Weed Control TAROF 29DAA: 29 Days After Application; for Percent Weed Control TAROF 56DAA: 56 Days After Application
Excerpt: (§2) The ALS inhibiting herbicides are useful in controlling broadleaf weeds and sedges in turfgrass. They are particularly effective against most important weeds in this application, viz., white clover, Trifolium repens L. (TRFRE); buckhorn plantain, Plantago lanceolata L. (PLALA); dandelion, Taraxacum officinale (TAROF); broadleaf plantain, Plantago major L. (PLAMA); ground ivy, Glechoma hederacea L. (GLEHE); common lespedeza, Lespedeza striata (LESST); pennywort (dollarweed), Hydrocotyle spp (HYDSS); Virginia buttonweed, Diodia virginiana L. (DIQVI) English daisy, Bellis perennis L. (BELPE); annual bluegrass, Poa annua (POANN); and yellow nutsedge, Cypres esculentus L. (CYPES).
(§3) Field studies were conducted in established turfgrass sites containing a natural population of target broadleaf weeds. Replicated trials, containing a minimum of three replications and having individual plots ranging in size from 25 to 50 ft. sq (2.3 to 4.6 square meters), were initiated in the late spring when turf and weeds were actively growing. Granule treatments were uniformly applied to individual plots using a common hand-shaker method. Applications were made in the early morning when dew was present. Natural rainfall and supplemental irrigation were used to maintain healthy turf and active weed growth throughout the study period. Control of each weed species in the study site was made at approximately 2, 4 and 8 weeks after treatment. Control was determined visually by comparing treated and untreated weeds and scored on a 0 to 100 percent scale where 0 corresponds to no control and 100 corresponds to complete kill.

[5] = system: white clover, Trifolium repens L. (TRFRE); assay: Postemergent weed control field study, Pennsylvania 2004, TRFRE; details: g ai/Ha: penoxsulam 35, imazaquin 104, bispyribac-sodium 75, trifloxysulfuron-sodium 9.2, metsulfuron-methyl 10.4; for Percent Weed Control TRFRE 29DAA: 29 Days After Application; for Percent Weed Control TRFRE 56DAA: 56 Days After Application
Excerpt: as §2
as §3, with “Granule treatments were uniformly applied to individual plots using a common hand-shaker method.” left out

[6] = system: buckhorn plantain, Plantago lanceolata L. (PLALA); assay: Postemergent weed control field study, Pennsylvania 2004, PLALA; details: g ai/Ha: penoxsulam 35, imazaquin 104, bispyribac-sodium 75, trifloxysulfuron-sodium 9.2, metsulfuron-methyl 10.4; for Percent Weed Control PLALA 29DAA: 29 Days After Application; for Percent Weed Control PLALA 56DAA: 56 Days After Application
Excerpt: as §2
as §3, with “Granule treatments were uniformly applied to individual plots using a common hand-shaker method.” left out

[7] = system: annual bluegrass, Poa annua (POANN); assay: Postemergent weed control field study, Pennsylvania 2004, POANN; details: g ai/Ha: penoxsulam 35, imazaquin 104, bispyribac-sodium 75, trifloxysulfuron-sodium 9.2, metsulfuron-methyl 10.4; for Percent Weed Control POANN 29DAA: 29 Days After Application; for Percent Weed Control POANN 56DAA: 56 Days After Application
Excerpt: as §2, §3

[8] = system: dandelion, Taraxacum officinale (TAROF); assay: Postemergent weed control field study, Pennsylvania 2004, TAROF; details: Liquid formulation, g ai/Ha: penoxsulam 35, imazaquin 104, bispyribac-sodium 75, trifloxysulfuron-sodium 9.2, metsulfuron-methyl 10.4; for Percent Weed Control TAROF 29DAA: 29 Days After Application; for Percent Weed Control TAROF 56DAA: 56 Days After Application

SMILES | Color ([1]; Granule formulation) | Injury ([1]; Granule formulation) | Color ([1]; Liquid formulation) | Injury ([1]; Liquid formulation) | Color ([2]; Granule formulation) | Injury ([2]; Granule formulation) | Color ([2]; Liquid formulation) | Injury ([2]; Liquid formulation) | Turf Quality 36 DAA [3] | Percent Weed Control TAROF 29DAA [4] [%] | Percent Weed Control TAROF 56DAA [4] [%] | Percent Weed Control TRFRE 29DAA ([5]; Granule formulation) [%] | Percent Weed Control TRFRE 56DAA ([5]; Granule formulation) [%] | Percent Weed Control TRFRE 29DAA ([5]; Liquid formulation) [%] | Percent Weed Control TRFRE 56DAA ([5]; Liquid formulation) [%] | Percent Weed Control PLALA 29DAA ([6]; Granule formulation) [%] | Percent Weed Control PLALA 56DAA ([6]; Granule formulation) [%] | Percent Weed Control PLALA 29DAA ([6]; Liquid formulation) [%] | Percent Weed Control PLALA 56DAA ([6]; Liquid formulation) [%] | Percent Weed Control POANN 29DAA ([7]; Granule formulation) [%] | also measured
COC(=O)c1ccccc1S(=O)(=O)NC(=O)Nc1nc(C)nc(OC)n1 [Metsulfuron-methyl, metsulfuron-methyl] | 8.8 0-10 Scale | 0.8 0-10 Scale | 6.8 0-10 Scale | 4.3 0-10 Scale | 6.5 0-10 Scale | 4.5 0-10 Scale | 6.0 0-10 Scale | 6.0 0-10 Scale | 8.3 0 to 10 scale | 87.2 | 67.2 | 93.9 | 93.9 | 95.8 | 100.0 | 58.3 | 85.0 | 97.7 | 78.9 | 32.2 | Percent Weed Control POANN 56DAA ([7]; Granule formulation): 31.1%; Percent Weed Control POANN 29DAA ([7]; Liquid formulation): 39.2%; Percent Weed Control POANN 56DAA ([7]; Liquid formulation): 17.5%; Percent Weed Control TAROF 29DAA [8]: 99.1%; Percent Weed Control TAROF 56DAA [8]: 97.4%
COc1cnc(OC)n2nc(NS(=O)(=O)c3c(OCC(F)F)cccc3C(F)(F)F)nc12 [Penoxsulam, penoxsulam] | 9.0 0-10 Scale | 0.3 0-10 Scale | 7.8 0-10 Scale | 3.0 0-10 Scale | 8.3 0-10 Scale | 1.5 0-10 Scale | 6.5 0-10 Scale | 4.3 0-10 Scale | 10.0 0 to 10 scale | 57.8 | 34.4 | 98.3 | 83.9 | 100.0 | 98.7 | 73.3 | 43.3 | 41.7 | 70.6 | 0.0 | Percent Weed Control POANN 56DAA ([7]; Granule formulation): 13.7%; Percent Weed Control POANN 29DAA ([7]; Liquid formulation): 4.4%; Percent Weed Control POANN 56DAA ([7]; Liquid formulation): 31.1%; Percent Weed Control TAROF 29DAA [8]: 44.4%; Percent Weed Control TAROF 56DAA [8]: 11.1%
